The results in this text go back to US9884848B2, “Phenyl triazole derivative and its use for modulating the GABAA receptor complex” (SANIONA A/S, priority 2012, dated 2018).

For this assay, the target named is T1, human GABAA α5β3*γ2s receptors (Homo sapiens, UniProt P18507+P31644).
T1 construct: expressed in transfected cells
Briefly: In vitro inhibition of 3H-flumazenil binding, HEK cells expressing the human GABAA α5β3*γ2S receptor. The procedure: When the cultures reach confluency, the DMEM is removed and the cells are washed (10 ml for T175 flasks; 50 ml for roller bottles) once in Dulbecco's Phosphate Buffered Saline (DPBS). Following addition of DPBS to the cultures (10 ml for T175 flasks; 100 ml for roller bottles) for approximately 5 min cells are easily detached from the surface by shaking or tapping the flask gently. The cell suspension is transferred to Falcon tubes and centrifuged at 23,500×g for 10 min at 2° C. The pellet is washed once in 15 ml Tris-citrate buffer (50 mM, pH 7.1) using an Ultra-Turrax homogenizer and centrifuged at 2° C. for 10 min at 27,000×g. The washed pellet is re-suspended in 15 ml Tris-citrate buffer and frozen at −80° C. until the day of the binding experiment.
On the day of the experiment the cell membrane preparation is thawed and centrifuged at 2° C. for 10 min at 27,000×g.
Non-specific binding is determined using clonazepam (1 μM, final concentration). […]
The amount of radioactivity on the filters is determined by conventional liquid scintillation counting using a […]
where B is the binding in percentage of total specific binding; C is the concentration of test compound; and n is the Hill coefficient. […] The IC50 value is calculated from the concentration response curves by the non-linear regression method using the curve-fitting program GraphPad Prism.

T1 sequence (P31644 32-462): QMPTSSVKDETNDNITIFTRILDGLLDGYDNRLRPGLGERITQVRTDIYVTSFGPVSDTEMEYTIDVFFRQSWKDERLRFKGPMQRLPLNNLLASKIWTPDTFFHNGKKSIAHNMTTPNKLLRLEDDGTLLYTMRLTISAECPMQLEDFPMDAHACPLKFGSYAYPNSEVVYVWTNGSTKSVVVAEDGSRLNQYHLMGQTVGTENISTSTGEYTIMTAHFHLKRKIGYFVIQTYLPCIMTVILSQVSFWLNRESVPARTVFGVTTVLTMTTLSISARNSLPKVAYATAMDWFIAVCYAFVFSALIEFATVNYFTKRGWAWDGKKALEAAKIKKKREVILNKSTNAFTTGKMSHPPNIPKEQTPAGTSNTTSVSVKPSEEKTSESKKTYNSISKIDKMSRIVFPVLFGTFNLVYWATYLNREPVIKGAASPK
T1 sequence (P18507 40-467 isoform P18507-1 limits assumed): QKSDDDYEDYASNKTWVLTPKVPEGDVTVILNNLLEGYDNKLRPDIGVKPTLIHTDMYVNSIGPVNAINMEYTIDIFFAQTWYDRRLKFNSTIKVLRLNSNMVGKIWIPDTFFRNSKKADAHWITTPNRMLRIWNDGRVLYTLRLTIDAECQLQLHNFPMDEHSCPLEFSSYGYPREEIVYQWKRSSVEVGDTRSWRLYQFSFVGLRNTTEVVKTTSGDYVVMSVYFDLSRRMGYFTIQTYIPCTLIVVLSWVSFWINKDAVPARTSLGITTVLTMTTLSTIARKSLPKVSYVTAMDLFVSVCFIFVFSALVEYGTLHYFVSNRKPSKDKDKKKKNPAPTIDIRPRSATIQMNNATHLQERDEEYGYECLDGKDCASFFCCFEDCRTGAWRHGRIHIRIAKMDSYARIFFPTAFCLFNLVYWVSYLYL

Take `NC(=O)c1ccc(OCc2c(C(F)F)nnn2-c2ccc(F)cc2)nn1` [Compound 1, 6-[[5-(difluoromethyl)-3-(4-fluorophenyl)triazol-4-yl]methoxy]pyridazine-3-carboxamide]: the Ki (commonly the equilibrium dissociation constant of an inhibitor or competing ligand from its target) amounted to 87 nM.
